According to patent US8470870B2, “Solid forms of an anti-HIV phosphoindole compound” (Idenix Pharmaceuticals, Inc., priority 2008, dated 2013):
Converted amounts (≈) assume the structure as drawn.

Tests used:
[1] = Apparent kinetic solubility in 2-butanol of different crystalline forms; type: physicochemical; conditions: dry 2-butanol; for Apparent Kinetic Solubility: 25° C.; for relative solubility among Forms I, VIII and IX: ambient temperature
Experimental: Milligram size quantities of each sample were placed into a vial. Solvent was added and the vials were vortexed for a few minutes, followed by visual observation for remaining solids. The solvent was incrementally added until the solids were dissolved, or a maximum volume of solvent was added and the experiment was terminated. Parallel to that, a suspension is made and filtered, the solids was examined by XRD to determine if a phase transformation occurs. Solubility experiments were performed to determine the solubility of the different polymorphic forms. […] Solubility data were collected on polymorphs I, VIII, and IX. Two of the forms were anhydrous and one was hydrated. […] Excess solids were placed in a test tube, solvent was then added in the tube, vortexed, and examined visually to determine if all the solids had dissolved. Attempts were made to prepare saturated or nearly saturated solutions of each polymorphic form by exposing excess solids of each polymorph to dry 2-butanol.

[2] = Non-competitive slurry experiments in neat solvents; type: physicochemical
Experimental: Noncompetitive slurry experiments were performed. These experiments rely on solubility differences of different polymorphic forms (if the compound exists in different polymorphic forms). […] Essentially, when a solid is dissolved in a (slurry) solvent, a saturated solution eventually results. The solution is saturated with respect to the polymorphic form dissolved. […] In addition, noncompetitive slurry experiments are often useful in identifying solvents that form solvates with the compound. […] The solids were mechanically filtered and analyzed by XRD to determine the resulting form. To avoid possible desolvation or physical change after isolation, the samples were not subjected to drying before X-ray analysis.

[3] = Form I/Form VIII competitive slurry in water-methanol mixtures; type: physicochemical
Experimental: Additional competitive slurry experiments were performed by mixing excess amounts of polymorphic forms in a solvent system and agitating the mixture isothermally. The competitive slurry experiments were used in attempts to identify the critical water activity levels for the interconversion of Form I (anhydrate target form) and Form VIII (monohydrate form). This was used to identify the water content range that can be used during processing to successfully isolate Form I in a reproducible manner. In each competitive slurry experiment, an excess of Form I and Form VIII of known weight was added to a water-methanol mixture. The suspension was slurred at ambient temperature (22° C.) or 45° C. continuously for up to 12 days in order to obtain thermodynamic equilibrium. Excess solids were collected at different slurry times by centrifugation, and then characterized by XRD. To avoid possible desolvation or physical change after isolation, the samples were not subjected to drying before X-ray analysis.

[4] = Solubility in water (preliminary, in words); type: physicochemical
Experimental: Milligram size quantities of each sample were placed into a vial. Solvent was added and the vials were vortexed for a few minutes, followed by visual observation for remaining solids. The solvent was incrementally added until the solids were dissolved, or a maximum volume of solvent was added and the experiment was terminated. Parallel to that, a suspension is made and filtered, the solids was examined by XRD to determine if a phase transformation occurs. Solubility experiments were performed to determine the solubility of the different polymorphic forms. […] Solubility data were collected on polymorphs I, VIII, and IX. Two of the forms were anhydrous and one was hydrated.

[5] = Hydration experiment at 95% RH; type: physicochemical; conditions: 18 days
Experimental: Hydration experiments were performed on (2-carbamoyl-5-chloro-1H-indol-3-yl)-[3-((E)-2-cyano-vinyl)-5-methyl-phenyl]-(R)-phosphinic acid methyl ester Form III sample. A known weight of sample was exposed to a 95% RH environment using a saturated solution of […].

Annealing experiment = type: physicochemical; conditions: 14 days at 46° C.
Experimental: In addition to the solvent recrystallization experiments and slurry experiments, annealing experiments were performed. These experiments entailed looking for structural changes as a function of temperature. This was accomplished by using variable-temperature XRD, and variable temperature ovens, and DSC experiments.

[6] = Competitive slurry experiments; type: physicochemical
Experimental: Competitive slurry experiments were performed by mixing excess amounts of the polymorphic forms together in different solvents and agitating isothermally. These types of slurry experiments were used in attempts to determine which phase is more thermodynamically stable under the conditions used. Slurry experiments were generally used to examine the energy relationship between Form I and Form IX, and to examine how these two forms may interconvert with the monohydrate (Form VIII).

[7] = Solubility in recrystallization solvents (Panel 1); type: physicochemical; conditions: organic solvent or mixture, thermodynamic from solid, saturation temp. 25 °C
Experimental: Milligram size quantities of each sample were placed into a vial. Solvent was added and the vials were vortexed for a few minutes, followed by visual observation for remaining solids. The solvent was incrementally added until the solids were dissolved, or a maximum volume of solvent was added and the experiment was terminated. Parallel to that, a suspension is made and filtered, the solids was examined by XRD to determine if a phase transformation occurs. Saturated solutions were prepared by agitating excess test material in contact with the various solvent systems at the saturation temperature. The mother liquor was separated from the residual solids by filtration. The mother liquor was then heated above the saturation temperature (overheated) to dissolve any remaining solids. The temperature of the solutions was then adjusted to the growth temperature and a controlled nitrogen shear flow was introduced to begin solvent evaporation.

[8] = system: several serine proteases like S. griseus proteases A and B, α-chymotrypsin, chymase, and subtilisin; conditions: cited from earlier work

CO[P@](=O)(c1cc(C)cc(/C=C/C#N)c1)c1c(C(N)=O)[nH]c2ccc(Cl)cc12 [Form I, (2-carbamoyl-5-chloro-1H-indol-3-yl)-[3-((E)-2-cyano-vinyl)-5-methyl-phenyl]-(R)-phosphinic acid methyl ester]
Apparent Kinetic Solubility ([1]; listed as I): 1810 µg/mL
relative solubility among Forms I, VIII and IX [1]: highest solubility
XRD pattern after slurry in water ([2]; water, ambient temperature and 50° C., up to 6 days): did not show changes in XRD pattern
water content level needed to stabilize Form I (anhydrate) [3]: ≤ 24 wt %
solubility in water [4]: practically insoluble

CO[P@](=O)(c1cc(C)cc(/C=C/C#N)c1)c1c(C(N)=O)[nH]c2ccc(Cl)cc12 [Form III]
XRD pattern after exposure to humidity [5]: no changes in XRD pattern
form after slurry (ripening) in methanol ([2]; neat methanol, about 1 day, ambient temperature): converted to Form I
form after non-competitive slurry in water ([2]; water, 3 days): resulted in Form VIII
XRD pattern after annealing (Annealing experiment): no change in the XRD pattern

COP(=O)(c1cc(C)cc(/C=C/C#N)c1)c1c(C(N)=O)[nH]c2ccc(Cl)cc12 (stereo not shown) [Form IX, (2-carbamoyl-5-chloro-1H-indol-3-yl)-[3-((E)-2-cyano-vinyl)-5-methyl-phenyl]phosphinic acid methyl ester]
solubility kinetic ([1]; 25 °C, organic solvent or mixture, thermodynamic from solid): 160 µg/mL (≈ 387 µM)
relative solubility among Forms I, VIII and IX [1]: lowest solubility
thermodynamic stability among forms ([6]; ambient temperature and pressure): most stable form
form after slurry in water ([6]; water, several days): remained unchanged

CO[P@](=O)(c1cc(C)cc(/C=C/C#N)c1)c1c(C(N)=O)[nH]c2ccc(Cl)cc12 [Form VIII, (2-carbamoyl-5-chloro-1H-indol-3-yl)-[3-((E)-2-cyano-vinyl)-5-methyl-phenyl]-(R)-phosphinic acid methyl ester]
Apparent Kinetic Solubility ([1]; listed as VIII): 310 µg/mL
critical water activity level for Form I/Form VIII interconversion ([6]; methanol/water bridging experiments): 40-60 vol % water

CO[P@](=O)(c1cc(C)cc(/C=C/C#N)c1)c1c(C(N)=O)[nH]c2ccc(Cl)cc12 [compound of Formula I, (2-carbamoyl-5-chloro-1H-indol-3-yl)-[3-((E)-2-cyano-vinyl)-5-methyl-phenyl]-(R)-phosphinic acid methyl ester]
solubility ([7]; 1-propanol): ~2670 µg/mL
solubility ([7]; 2-butanol): < 2670 µg/mL
solubility ([7]; 2-propanol): < 2670 µg/mL
solubility ([7]; ethanol): 3640 µg/mL
solubility ([7]; methanol): 10000 µg/mL
solubility ([7]; nitromethane): 5710 µg/mL

Eglin c
potency of inhibition [8]: nanomolar potency inhibition
